Patent publication US5364623A, “Antibiotic produced by Bacillus subtilis ATCC 55422 capable of inhibiting bacteria” (Bristol-Myers Squibb Company, priority 1993, dated 1994)
≈ marks a conversion by molar mass, not a printed value.

Assays:
Escherichia coli K-10 = assay: MIC, liquid broth tube dilution assay, E. coli K-10; type: cell-based; settings: H108 medium, 37° C., 6-7 hours
Protocol: (§1) (1) Determination of the minimum concentration of bacillaene required for total inhibition of growth (MIC) was performed using liquid H108 medium containing Bacto-Tryptone (10g); Bacto-yeast extract (5 g); NaCl (5 g); and distilled water (1 liter). The assays were performed in 13×100 mm glass tubes in a final volume of 0.5 ml. Two fold dilutions of the compound were utilized. The cultures were incubated at 37° C. in a test-tube rack on a shaker. Presence of turbidity was used as an indicator of growth. The tubes were read after 6-7 hours of incubation.

[1] = system: Rabbit reticulocyte in vitro trans. sys.; assay: In vitro protein synthesis, eucaryotic (rabbit reticulocyte) translation system; type: biochemical
[2] = system: Staphylococcus aureus 209P; assay: Agar diffusion, S. aureus 209P; type: cell-based; settings: 25 μg per well, overnight at 37° C.
Protocol: (§2) (3) The effect of bacillaene on a wide spectrum of bacteria was determined using the agar diffusion method. The bacteria to be tested were grown in […] broth overnight at 37° C. This culture was used to inoculate […] agar using a standard pour plate method. A 1% inoculum of the overnight culture was used. Wells of 2 mm diameter were punched in the agar and bacillaene (25 μg) was loaded in each well. The plates were incubated overnight at 37° C. and lack of growth around the agar well was scored as inhibition by bacillaene of the growth of the organism.

Escherichia coli = assay: MIC, liquid broth tube dilution, E. coli strains overall; type: cell-based
Protocol: as §1

[3] = system: Staphylococcus aureus SC-2400; assay: Agar diffusion, S. aureus SC-2400; type: cell-based; settings: 25 μg per well, overnight at 37° C.
Protocol: as §2

[4] = system: Procaryotic in vitro transc.-transl. sys.; assay: In vitro protein synthesis, procaryotic transcription-translation coupled system (35S incorporation); type: biochemical
From the text: A prokaryotic in vitro transcription-translation coupled system was used for these experiments (Promega Corporation, 2800, Woods Hollow Road, Madison, Wis.).

Escherichia coli SGB-888 = assay: MIC, liquid broth tube dilution assay, E. coli SGB-888; type: cell-based; settings: H108 medium, 37° C., 6-7 hours
Protocol: as §1

Escherichia coli impB = assay: MIC, liquid broth tube dilution assay, E. coli impB; type: cell-based; settings: H108 medium, 37° C., 6-7 hours
Protocol: as §1

[5] = system: Escherichia coli BAS-2006; assay: MIC, liquid broth tube dilution assay, E. coli BAS-2006; type: cell-based; settings: H108 medium, 37° C., 6-7 hours
Protocol: as §1

[6] = system: Escherichia coli SGB-10857; assay: MIC, liquid broth tube dilution assay, E. coli SGB-10857; type: cell-based; settings: H108 medium, 37° C., 6-7 hours
Protocol: as §1

Saccharomyces cervesiae = assay: Growth of eukaryotic cells; type: cell-based

SMILES: C/C(=C/C=C/C=C/C(C)C(=O)O)NC(=O)CC(O)\C(C)=C/C=C\C=C(C)\C=C\C=C/C=C/CNC(=O)C(O)CC(C)C (stereo not shown) [Bacillaene, bacillaene]
- MIC (Escherichia coli K-10): 37.0 mg/L (≈ 63.7 µM)
- inhibition of eucaryotic in vitro protein translation system (in words) ([1]; at the concentrations tested): failed to inhibit
- Inhibition of in vitro protein synthesis, rabbit reticulocyte in vitro trans. sys. ([1]; final conc. 0.75 μg/ml): < 7.0%
- Inhibition of in vitro protein synthesis, rabbit reticulocyte in vitro trans. sys. ([1]; final conc. 1.5 μg/ml): < 7.0%
- Inhibition of in vitro protein synthesis, rabbit reticulocyte in vitro trans. sys. ([1]; final conc. 6.0 μg/ml): < 7.0%
- Growth Inhibition [2]: ++ (hazy)
- potency against certain strains of Escherichia coli (in words) (Escherichia coli): extremely potent
- Growth Inhibition [3]: ++ (hazy)
- inhibition of procaryotic protein synthesis (in words) ([4]; 35S incorporation into trichloroacetic-acid-precipitable polypeptides): potent inhibitor of procaryotic protein synthesis
- Inhibition of in vitro protein synthesis, procaryotic in vitro transc.-transl. sys. ([4]; final conc. 0.75 μg/ml): > 88.0%
- Inhibition of in vitro protein synthesis, procaryotic in vitro transc.-transl. sys. ([4]; final conc. 1.5 μg/ml): > 95.0%
- MIC (Escherichia coli SGB-888): 0.09 mg/L (≈ 0.155 µM)
- MIC (Escherichia coli impB): 0.50 mg/L (≈ 0.861 µM)
- MIC [5]: 0.60 mg/L (≈ 1.03 µM)
- MIC [6]: 5.0 mg/L (≈ 8.61 µM)
- effect on growth of eukaryotic cells (in words) (Saccharomyces cervesiae): not observed to affect the growth
